Reference: patent US7504433B2, “Thiophene derivative PPAR modulators” (Eli Lilly and Company, priority 2003, dated 2009)

melting point: 126.2 to 132.6 °C
SMILES: Cc1cc(OC[C@@H](C)c2sc(-c3ccc(C(F)(F)F)cc3)cc2C)ccc1CCC(=O)O (single isomer, unassigned) [Example 16, 3-(2-Methyl-4-{2-[3-methyl-5-(4-trifluoromethylphenyl)thiophen-2-yl]propoxy}-phenyl)propionic acid]
